Laboratory results reported in publication PMC11475408, “All‐Inorganic Polyoxometalates Act as Superchaotropic Membrane Carriers” (Advanced Materials (Deerfield Beach, Fla.), 2023).

What was measured:
[1] = tested on: methicillin-resistant Staphylococcus aureus (SR3605, ATCC43300); conditions: in combination with β-Lactamase; Mueller-Hinton broth, pH 7.4, 34 °C; ref [8]; cited from earlier work
Source text: page 4: 2. Literature survey Table S1. Survey of experimentally proven membrane penetration of POMs according to a search in Scopus (“polyoxometalate” and “membrane penetration”) up to the submission date of the manuscript.

[2] = ref [11]; cited from earlier work
Source text: Table 1 Stability of POMs in acidic and neutral pH and membrane transport parameters of different cargo molecules at pH 7.4 | column: Hydrolysis/stability / pH 5.5 ^e); Hydrolysis/stability / pH 7.5 ^f)

[3] = Membrane disruption of liposomes by POM alone (CF fluorescence, DLS); assay type: biochemical
Description: It should be noted that the addition of POMs alone (without cargo) retained the stability of the liposomes in the studied concentration range (up to 100 µM), that is, neither an increase in CF fluorescence nor changes in size distribution as obtained by dynamic light scattering experiments (DLS, see Figure S4, Supporting Information) were observed, which would have signaled membrane rupture. These negative controls allowed us to proceed to the carrier experiments, with added cargo.
DLS experiments of the vesicles were carried out on a Malvern Instruments DTS Nano 2000 Zeta‐Sizer. A POM concentration of 100 µM was chosen as default, since this is the highest concentration at which membrane transport was evaluated. The cargo concentration was set to be same as in the transport experiments, namely 10 µM for heptaarginine, 1 µM for protamine, and 0.1 µM for polyarginine. Note that the POMs themselves, with a size of ≈1 nm, fall below the detection limit (>10 nm) of the DLS instrument.
Figure S3. Transport activity, Y, for polyarginine (0.1 µM) in EYPC[…]CF liposomes as a function of the concentration of the different evaluated POMs. Solid lines correspond to the resulting fit with the Hill equation. Blue squares are data obtained at neutral pH, and red stars data obtained at acidic pH.
Table S4. Membrane transport parametersa) of active POMs at neutralb) and acidicc) pH.
HeptaArgd) Protaminee) PolyArgf) carrier pH Hydrolysis/Stability
Ymax [%]g) EC50h) [µM] E i) Ymax [%] EC50 [µM] E Ymax [%] EC50 [µM] E […]
Figure S5. Transport kinetics (left pannels), dose response curves (middle pannels) for cargo transport, and size distribution (by DLS, right pannels) for [PW12]3‒ (top) and [SiW12]4‒ (bottom), measured with EYPC[…]CF liposomes at pH 7.4, but preserving the POM solution at pH 1.2 before addition. As shown in panel a, the addition of [PW12]3‒ alone gave a fluorescence increase, pointing to membrane disruption, which was confirmed by DLS (panel c). […]

## K4[α‐P^VV^VW^VI 11O40]·4H2O [[PVW11]^4‒]
[1]
  MIC: 800 µg/mL

## Na3[α‐P^VW^VI 12O40]·nH2O [[PW12]^3‒]
[2]
  Hydrolysis/stability pH 7.5: to [P^VW^VI 9O34]^9‒ ^j)
[3]; POM alone added to liposomes, POM solution kept at pH 1.2, CF fluorescence
  Membrane disruption with POM solution kept at pH 1.2: strong interaction and membrane disruption
[3]; higher than 100 µM POM, 10 mM Tris, 107 mM NaCl, pH 7.4
  Vesicle lysis at higher concentrations: led to vesicle lysis
